Assay results published in paper PMC10685318, “Trans-cyclosulfamidate mannose-configured cyclitol allows isoform-dependent inhibition of GH47 α-D-mannosidases through a bump–hole strategy” (Chemical Science, 2023).

How the values were obtained:
[1] = biological target: CkGH47 WT (Caulobacter sp. K31, UniProt B0SWV2); test: Inhibition of CkGH47 WT monitored by enzymatic conversion of α-1,2-mannobiose to mannose; format: biochemical, Caulobacter K31 strain; conditions: for inhibition of the wild-type GH47 model enzyme: even at high inhibitor concentrations
Sequence of CkGH47 WT (B0SWV2 entry or part of it): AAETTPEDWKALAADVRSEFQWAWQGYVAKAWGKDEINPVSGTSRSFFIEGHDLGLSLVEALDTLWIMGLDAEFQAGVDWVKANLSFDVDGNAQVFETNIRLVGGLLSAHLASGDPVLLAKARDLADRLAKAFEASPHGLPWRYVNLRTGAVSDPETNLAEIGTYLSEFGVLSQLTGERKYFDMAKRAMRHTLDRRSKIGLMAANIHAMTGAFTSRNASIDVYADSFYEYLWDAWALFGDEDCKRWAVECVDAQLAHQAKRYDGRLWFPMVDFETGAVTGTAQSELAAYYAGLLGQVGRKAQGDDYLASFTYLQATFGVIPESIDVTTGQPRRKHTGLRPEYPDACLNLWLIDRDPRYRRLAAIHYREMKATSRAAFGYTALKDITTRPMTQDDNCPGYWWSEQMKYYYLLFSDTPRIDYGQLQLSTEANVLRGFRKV
Experimental: (§1) Trans-Cyclosulfamidate Cyclitols Males et al.
Figure S4. Inhibition of CkGH47 by 6 monitored by the enzymatic conversion of mannobiose to mannose. 3 concentrations of the […]
and the reaction was incubated for 1 hour at 22 °C. The enzyme was heat denatured (90 °C for 5 minutes). Using the mannose detection kit, NADPH production at 340 nm was measured and converted to mannose concentration using a standard curve of […]
Figure S5. Docking of 6, in pink, into the crystal structure of Caulobacter GH47 (PDB ID: 4AYO), in gold, showing the distance between the oxygen of 6 and L310. Left: 6 was docked into the CkGH47 enzyme active site by least squares fit superposition in coot against the CkGH47 and kifunensine complex (PDB ID 5NE5). Right: Position of CkGH47 WT crystal structures of the inhibitors 6 (pink) and kifunensine (green); native is shown in gold (PDB ID: 4AYO) and CkGH47 in complex with kifunensine is shown in orange (PDB ID: 5NE5); there are 2 alternate conformations of leucine each with 50% occupancy in the crystal structure. […]
(§2) 2.1 Biochemical and biological methods
(§3) To obtain Michaelis-Menten kinetics
(§4) Lastly, to achieve an inhibition constant, the
(§5) The gradient of the graph, V0/Vi
(§6) After taking each time point, the sample was heat denatured at 95 °C for 5 minutes. The reactions were conducted in triplicate and averaged. […]
(§7) microplate spectrophotometer (BioTek). The mannose detection kit (Megazyme) was used to detect […]
(§8) dehydrogenase, was monitored at 340 nm. The absorbance after hexokinase was added to the mixture […]
2.1.2 Isothermal titration calorimetry
MicroCal ITC200 calorimeter at 25 °C over 20 injections. The experiment was duplicated to obtain a […]
the MicroCal PEAK-ITC analysis software.
2.2 Crystallographic data collection and refinement of CkGH47
3′ and the reverse primer was 5′-[…]-3′. Protein production and purification was followed as described previously.[3]
Reference data in the form of a
Refinement of the model was conducted […]
conformation was conducted using […]. Details of the data collection and refinement statistics […]

[2] = biological target: T1, CkGH47 L310S (Caulobacter sp. K31, UniProt B0SWV2, L310S); test: Inhibition constant (V0/Vi vs inhibitor, mannose detection kit) with the CkGH47 L310S mutant; format: biochemical, Caulobacter K31 strain
T1 sequence (B0SWV2 25-462 L310S): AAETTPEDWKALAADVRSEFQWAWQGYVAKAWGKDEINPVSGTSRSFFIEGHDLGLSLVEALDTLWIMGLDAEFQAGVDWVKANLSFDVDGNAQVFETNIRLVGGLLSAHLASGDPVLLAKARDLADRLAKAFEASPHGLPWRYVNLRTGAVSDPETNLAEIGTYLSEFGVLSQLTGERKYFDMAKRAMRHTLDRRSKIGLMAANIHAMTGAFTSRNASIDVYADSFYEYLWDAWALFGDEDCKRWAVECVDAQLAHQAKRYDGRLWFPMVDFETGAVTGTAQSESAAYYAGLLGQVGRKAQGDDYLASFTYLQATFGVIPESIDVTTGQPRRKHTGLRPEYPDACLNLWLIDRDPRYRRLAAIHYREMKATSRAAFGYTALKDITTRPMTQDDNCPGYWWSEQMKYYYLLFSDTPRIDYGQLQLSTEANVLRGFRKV
Experimental: Building on this kinetic assay, we obtained an inhibition constant by pre-incubation of the enzyme and 6 for 30 minutes and then following the same time-point procedure as for the Michaelis–Menten assay. […] Similarly, a dissociation constant of 970 nM was obtained using isothermal titration calorimetry (Fig. S6 ^†). To understand the interactions between 6 and CkGH47 L310S regarding the introduced hole, a crystal structure complex was obtained (statistics in Table S2 ^†). Trans-cyclic sulfamidate 6 binds similarly to other conformationally restricted GH47 inhibitors, with additional interactions between the sulfamidate and active site residues, for example, the nitrogen and oxygen, and D249 and R363 side chains. Additionally, the introduced serine residue is indeed now in a position to hydrogen bond to the oxygen of the sulfamidate with a distance of 3.1 Å.
as §1, §2, §3, §4, §5, §6, §7, §8

O=S1(=O)N[C@@H]2[C@@H](O)[C@@H](O)[C@H](O)[C@@H](CO)[C@H]2O1 [compound 6, 1,6-trans-manno-cyclosulfamidate]
α-1,2-mannobiose hydrolysed by the WT GH47 mannosidase to mannose ([1]; after the addition of 1 mM 6): 82%
inhibition of the wild-type GH47 model enzyme [1]: no significant inhibition
inhibition of the wild-type GH47 model enzyme ([1]; listed as 1,6-trans-cyclic sulfamidate): does not inhibit
Ki [2]: 574 nM
